Earlier results as cited in patent US20230338288A1, “ASYMMETRIC CHARGED VESICLES AND METHODS OF PREPARING AND USE THEREOF” (The Research Foundation for the State University of New York, priority 2020, published 2023).

Conditions: compared with Doxil (liposome-encapsulated Dox)

Q: For `COc1cccc2c1C(=O)c1c(O)c3c(c(O)c1C2=O)C[C@@](O)(C(=O)CO)C[C@@H]3O[C@H]1C[C@H](N)[C@H](O)[C@H](C)O1` [Dox, Doxorubicin], which “dose that can be delivered without exhibiting cardiotoxicity, fold less than with Doxil” value is on record?
A: The value was 10-50 fold.
